Measured values as given in patent US12714721B2, “Methods of treatment of a cytokine storm” (Loma Linda University Health, priority 2020, dated 2026).
“Also recorded” adds a separate entry of the source.

Key:
kidneys = test: Vascular leakage permeability assay (Evans blue dye), kidney; format: in vivo, mouse; conditions: day 1 (FIG. 5A)
Procedure: (§1) Experimental Design for IGF-1 and BTP-2 studies—The animal experiments involved B6 mice between 5-8 weeks of age. Most experiments involved five groups of animals: (1) healthy, (2) LPS untreated (LPS-No Tx), (3) IGF-I in vivo gene therapy one day before LPS injection (LPS+IGF-1), (4) BTP-2 16 mg/kg i.p. at the start of the study and the (5) combined therapy with IGF-I and BTP-2 (LPS-IGF-1+BTP-2). For the survival experiment, a lethal dose of LPS (25 mg/kg) was used and all of the untreated animals died by 72 hours. In the other experiments, a sublethal dose of LPS (20 mg/kg) was used.
LPS induced sepsis and subsequent AKI—Female C57BL/6 mice received a sublethal or lethal dose of LPS from E. coli (0127: B8 strain, Sigma Aldrich, St. Louis, MO, USA) in a concentration of 20 or 25 mg/kg body weight administrated in sterile PBS by intraperitoneal injection. […]
Vascular leakage permeability assay—Evans blue dye (EBD) was dissolved in a 0.9% saline solution at a concentration of 5 mg/mL and injected to the mouse tail vein (50 mg/kg, i.v.). […] The absorbance of the supernatants was measured at 620 and 740 nm using a dual-wave ELISA plate reader.

LPS-induced AKI mice = test: Survival test with a lethal dose of LPS (25 mg/kg body weight); format: in vivo, mouse; conditions: LPS 25 mg/kg i.p.; for overall survival rate: end of the experiment (144 h) (FIG. 1D); for mortality: pretreatment (FIG. 1D)
Procedure: Different components of the treatment regimen were tested, individually and in combination, for their effect on prolonging survival or affecting mortality. A survival test was performed with a lethal dose of LPS (25 mg/kg body weight). As LPS causes AKI, a mouse model was utilized where AKI was induced by parenteral injection of LPS. Animals were treated with IGF-1 and Vitamin C, individually and in combination to evaluate their effect on survival (FIG. 1C). Kaplan Meier survival analysis was conducted between LPS induced systemic-sepsis animals treated with or without IGF-1, Vitamin C or combination therapy measured over the 96 hour-study period. […] No mortality was observed among healthy mice.
Different components of the treatment regimen were tested, individually and in combination, for their effect on prolonging survival or affecting mortality. A survival test was performed with a lethal dose of LPS (25 mg/kg body weight). Animals were treated with all components individually and in combination to evaluate their effect on survival. As LPS causes AKI, a mouse model was utilized where AKI was induced by parenteral injection of LPS. Pretreatment with IGF-1 monotherapy, BTP-2 monotherapy, and IGF-1+BTP-2 combination therapy was evaluated for effect in the mouse model to prevent the animals from succumbing to death due to organ failure in AKI. Mice (7 per groups) were i.p. injected with a lethal dose of LPS (25 mg/kg body weight). A group of mice received an i.p. injection of BTP-2 (16 mg/kg) one hour before LPS injection, and another group of mice received i.m. injection of Lenti-IGF1, 24 hours before LPS injection. A separate group of mice received a combination of IGF-1+BTP-2 as pretreatment. Mice were monitored every 6 hours. […] The mortality of LPS-injected mice that received an IGF-1 (labeled as LPS+IGF-1) pretreatment was 60% within 36 hours, and 88% at the end of the experiment (144 h). Mortality in LPS-injected mice that received BTP-2 (labeled as LPS+BTP-2) pretreatment was 0% within 36 hours, 30% within 48 hours and 72% at 144 hour-time point. However, the mortality in LPS-injected mice that received an IGF-1 and BTP-2 (labeled as LPS+IGF-1+BTP-2) pretreatment was comparatively low, which reached only 15% within 48 hours, and at the end of the 144 hour-time point reached only up to 43% (compared to LPS-No Tx). […] Meanwhile, no mortality was observed among mice treated with PBS, i.e., healthy group.
as §1
LPS induced sepsis and subsequent AKI—Female C57BL/6 mice received a sublethal or lethal dose of LPS from E. coli (0127: B8 strain, Sigma Aldrich, St. Louis, MO, USA) in a concentration of 20 or 25 mg/kg body weight administrated in sterile PBS by intraperitoneal injection.
Treatment—In a preventive therapeutic strategy, some of the mice received an intramuscular injection of Lenti-IGF-1 24 hours before LPS injection; whereas, the calcium signaling blocker BTP-2 (16 mg/kg, Cayman Chemical) was administrated 1 hour before LPS injection. Some of the animals received a combination of Lenti-IGF-1 and BTP-2. Control group mice were injected with an equal volume of PBS.

[1] = Serum IGF-I in LPS-treated mice after IGF-I in vivo gene therapy; parameters: species or system mouse; conditions: LPS 20 mg/kg i.p., 7-day study, IGF-I gene therapy i.m. one day prior to LPS
Procedure: AKI inflammation was associated with a decrease in serum IGF-I. This deficiency was rescued by expression of IGF-1. An in vivo gene therapy approach was utilized. A lentiviral vector engineered to express IGF-I was injected into skeletal muscle of the mice. Constant IGF-I production was designed because IGF binding protein 3, which normally binds to and stabilizes IGF-1 in serum, is expected to decrease. This decrease is due to liver growth receptor depression and therefore the free IGF-I, being a small molecule, is excreted in the urine. By using in vivo gene therapy approach, the free IGF-I is available to the sites of injury in the kidney.
In this 7-day study, there was a marked drop in serum IGF-I from 337.5 to 85 ng/mL (p<0.001), as a consequence of LPS therapy (20 mg/kg body weight). […] Under normal conditions, IGF-I circulates bound to IGFBP3. However, under the conditions of LPS administration, IGFBP3 would be expected to be low. Consequently, IGF-1 produced by muscle should circulate as free IGF-I, which would be readily accessible through the remaining intact vasculature to the injured kidney.
Experimental Design for IGF-1 and BTP-2 studies—The animal experiments involved B6 mice between 5-8 weeks of age. […]

| Compound | vascular leakage (extravasation of Evans blue dye) (kidneys) | overall survival rate (LPS-induced AKI mice) [%] | mortality (LPS-induced AKI mice; end of the experiment (144 h)) [%] | mortality (LPS-induced AKI mice; within 36 hours) [%] | mortality (LPS-induced AKI mice; within 48 hours) [%] | serum IGF-I [1] | serum IGF-I ([1]; listed as Lenti-IGF-I) |
| --- | --- | --- | --- | --- | --- | --- | --- |
| Cc1nnsc1C(=O)Nc1ccc(-n2nc(C(F)(F)F)cc2C(F)(F)F)cc1 [BTP-2, 3,5-bis(trifluoromethyl)pyrazole derivative] | more so | 28 | 72 | 0 | 30 | – | – |
| IGF-I: Insulin-like Growth Factor, delivered by a lentiviral vector engineered to express IGF-I injected into skeletal muscle | improved | 12.5 | 88 | 60 | – | normalized the low serum IGF-I; also recorded: rescued this deficiency | rescued the serum IGF-I deficiency |
